The inhibition is the share of the control response that was lost under treatment.

Counter-ions that a name gives are not always drawn. Where only a bound is given, the exact number is not on record here.

The values that follow come from patent US12187681B2 (Shanghai East Hospital, priority 2019, dated 2025).

What all share (assay type): cell-based
Series [1] has as its target T1, Iks potassium channel (KCNQ1/KCNE1) (Homo sapiens, UniProt P51787).
T1 construct: expressed in transfected cells; host or cells: CHO
As to the kind of experiment: Iks channel whole-cell patch clamp (Ion Channel Activity Measurement). The following applies: human, CHO cells stably expressing Iks channel (KCNQ1 and KCNE1), room temperature; for inhibition at 5 min, 1 μM: pH 7.4, 1 μM test article; for inhibition at 5 min, 10 μM: pH 7.4, 10 μM test article.
Procedure: CHO cell line stably expressing Iks potassium voltage-gated channel subfamily Q member 1(KCNQ1) and potassium voltage-gated channel subfamily E regulatory subunit 1 (KCNE1), cDNA strictly similar to GenBank accession number: NM_000218 and NM_000219
Cells expressing channels were cultured in medium supplemented with 20% FBS in HAM'S F12 culture dish. Cells grew in a humidified incubator at 37° C. under 5% carbon dioxide. To passage cells, remove poor medium and rinse the cells once with PBS 1X. […] Place plate on a 37° C. warming incubator 5 min. As soon as cells are detached, add 5 ml of 37° C. complete medium. Draw cell suspension into a sterile pipet and homogenize cells gently to dissociate cells aggregates. Amplify or maintain the cells by seeding 2.5*105 cells in a 6 cm dish (final volume: 5 ml). To maintain electrophysiological performances, cell density must not exceed 80%. On the day before patch clamp experiment, 3*103 cells were seeded on coverslips in the 24-well plate and incubated at 37° C. in 5% carbon dioxide.
Extracellular solution (mM): 140 NaCl, 2.5 KCl, 1 MgCl2, 2 CaCl2, 5 Glucose, 10 HEPES, pH=7.4 with NaOH.
Pipette solution (mM): 120 K-aspartic, 10 HEPES, 5 MgCl2, 5 EGTA, 4 Na2-ATP 0.3 Na2-GTP, 14 mM Phosphocreatine disodium salt, 20 u/mL Creatine phosphor kinse pH 7.2 with KOH
Glass pipette (BF150-86-10, Sutter Instruments) was made by puller (P97, Sutter Instruments). The glass pipette was manipulated using Micro-manipulator (Carm-C-S, MCI Instruments) under the microscope (AE31EF-INV, Motic). After touching the cell, a slight suction was applied to achieve high seal (GΩ). Fast capacitance (in pF) compensation was made after high seal was achieved; after achieving high seal, the membrane was broken, Cell capacitance (in pF) compensation was made from whole-cell capacitance compensation after the whole cell mode was achieved. No leak subtraction was made.
Cell was incubated with the test article for 5 minutes, or until the current reached a steady-state level. Multiple concentrations of test article were tested. The test articles were applied gradually from low to high concentration. The test and control solutions were flown into a recording chamber mounted on the stage of an inverted microscope via a gravity-fed solution delivery system. During the experiment, solutions were withdrawn from the recording chamber by vacuum aspiration. Each concentration was tested at multiple times. Each cell acted as its own control. All tests were performed at room temperature (23-25° C.).
IKs current was measured using a pulse protocol consisting of −80 mV holding potential increment up to +60 mV over a period of 5 seconds. And then quickly repolarizedat −40 mV and maintained for 4 seconds.

Series [2] has as its target T2, hERG (human ether-a-go-go related gene potassium channel, KCNH2) (Homo sapiens, UniProt Q12809).
T2 construct: expressed in transfected cells; host or cells: HEK293
As to the kind of experiment: hERG channel whole-cell patch clamp (Ion Channel Activity Measurement). The following applies: human, room temperature; for inhibition at 1 μM: pH 7.4, 1 μM test article; for inhibition at 10 μM: pH 7.4, 10 μM test article. The essentials: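 HEK293 cells stably expressing hERG (NM_000238) were recorded by whole-cell patch clamp at 23-25° C. Holding potential −80 mV, step to 30 mV for 2.5 s, tail currents at −50 mV for 4 s, pulses every 10 s. Each concentration was perfused low to high for 5 min or to steady state, with each cell as its own control.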
Background: Block of hERG is tested as a sign of cardiac risk.

In series [3] the target is T3, CaV1.2 (L-type voltage-dependent calcium channel; CACNA1C, CACNB2, CACNA2D1) (Homo sapiens, UniProt Q13936).
T3 construct: expressed in transfected cells; host or cells: CHO
As to the kind of experiment: CaV1.2 channel whole-cell patch clamp (Ion Channel Activity Measurement). To be noted: human, room temperature; for inhibition at 5 min, 1 μM: pH 7.4, 1 μM test article; for inhibition at 5 min, 10 μM: pH 7.4, 10 μM test article, read-out: CaV 1.2 10 μM (ion-channel inhibition). The method, boiled down: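 Whole-cell patch clamp was run on CHO cells stably expressing CACNA1C/CACNB2/CACNA2D1 at 23–25 °C, with 10 mM CaCl2 TEA bath (pH 7.4) and CsCl pipette solution (pH 7.2). Currents were evoked from −80 mV to +10 mV for 0.3 s every 20 s without leak subtraction. Ascending concentrations were each applied for 5 min or until steady state.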

[4] abbreviates: HEK293 cells expressing the human ERG potassium channel.

T2 sequence (Q12809 whole entry): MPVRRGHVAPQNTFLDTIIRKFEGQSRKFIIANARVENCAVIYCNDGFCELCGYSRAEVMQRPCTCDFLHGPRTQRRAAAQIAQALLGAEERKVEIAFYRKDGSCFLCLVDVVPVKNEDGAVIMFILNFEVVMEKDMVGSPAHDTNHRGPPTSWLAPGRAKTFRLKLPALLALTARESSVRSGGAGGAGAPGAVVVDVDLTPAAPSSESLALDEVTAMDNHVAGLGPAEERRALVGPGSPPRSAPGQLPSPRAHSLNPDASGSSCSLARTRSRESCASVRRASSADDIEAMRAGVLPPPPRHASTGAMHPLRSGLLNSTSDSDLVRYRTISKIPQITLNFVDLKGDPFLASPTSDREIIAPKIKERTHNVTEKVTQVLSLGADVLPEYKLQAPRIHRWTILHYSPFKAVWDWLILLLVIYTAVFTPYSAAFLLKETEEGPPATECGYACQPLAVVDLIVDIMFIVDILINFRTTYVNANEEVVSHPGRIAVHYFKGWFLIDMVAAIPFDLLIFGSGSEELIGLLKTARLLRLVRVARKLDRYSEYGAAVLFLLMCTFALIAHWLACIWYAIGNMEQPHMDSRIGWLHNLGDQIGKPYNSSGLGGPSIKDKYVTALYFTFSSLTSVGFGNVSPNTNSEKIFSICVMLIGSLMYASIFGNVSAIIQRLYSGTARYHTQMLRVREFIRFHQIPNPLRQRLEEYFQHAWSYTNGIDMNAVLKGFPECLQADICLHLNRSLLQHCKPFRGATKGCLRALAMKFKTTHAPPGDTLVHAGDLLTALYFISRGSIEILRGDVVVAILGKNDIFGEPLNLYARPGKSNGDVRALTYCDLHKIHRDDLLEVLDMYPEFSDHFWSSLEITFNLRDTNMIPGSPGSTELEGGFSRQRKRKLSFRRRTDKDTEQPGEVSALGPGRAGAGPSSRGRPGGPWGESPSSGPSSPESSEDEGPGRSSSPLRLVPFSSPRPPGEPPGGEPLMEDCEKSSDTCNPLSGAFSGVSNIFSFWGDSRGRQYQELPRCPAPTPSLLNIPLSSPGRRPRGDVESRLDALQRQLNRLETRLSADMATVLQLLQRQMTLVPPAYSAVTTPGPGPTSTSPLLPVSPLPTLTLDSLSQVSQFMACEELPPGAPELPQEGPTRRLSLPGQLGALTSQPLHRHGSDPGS
T3 sequence (Q13936 1-2138 isoform Q13936-12): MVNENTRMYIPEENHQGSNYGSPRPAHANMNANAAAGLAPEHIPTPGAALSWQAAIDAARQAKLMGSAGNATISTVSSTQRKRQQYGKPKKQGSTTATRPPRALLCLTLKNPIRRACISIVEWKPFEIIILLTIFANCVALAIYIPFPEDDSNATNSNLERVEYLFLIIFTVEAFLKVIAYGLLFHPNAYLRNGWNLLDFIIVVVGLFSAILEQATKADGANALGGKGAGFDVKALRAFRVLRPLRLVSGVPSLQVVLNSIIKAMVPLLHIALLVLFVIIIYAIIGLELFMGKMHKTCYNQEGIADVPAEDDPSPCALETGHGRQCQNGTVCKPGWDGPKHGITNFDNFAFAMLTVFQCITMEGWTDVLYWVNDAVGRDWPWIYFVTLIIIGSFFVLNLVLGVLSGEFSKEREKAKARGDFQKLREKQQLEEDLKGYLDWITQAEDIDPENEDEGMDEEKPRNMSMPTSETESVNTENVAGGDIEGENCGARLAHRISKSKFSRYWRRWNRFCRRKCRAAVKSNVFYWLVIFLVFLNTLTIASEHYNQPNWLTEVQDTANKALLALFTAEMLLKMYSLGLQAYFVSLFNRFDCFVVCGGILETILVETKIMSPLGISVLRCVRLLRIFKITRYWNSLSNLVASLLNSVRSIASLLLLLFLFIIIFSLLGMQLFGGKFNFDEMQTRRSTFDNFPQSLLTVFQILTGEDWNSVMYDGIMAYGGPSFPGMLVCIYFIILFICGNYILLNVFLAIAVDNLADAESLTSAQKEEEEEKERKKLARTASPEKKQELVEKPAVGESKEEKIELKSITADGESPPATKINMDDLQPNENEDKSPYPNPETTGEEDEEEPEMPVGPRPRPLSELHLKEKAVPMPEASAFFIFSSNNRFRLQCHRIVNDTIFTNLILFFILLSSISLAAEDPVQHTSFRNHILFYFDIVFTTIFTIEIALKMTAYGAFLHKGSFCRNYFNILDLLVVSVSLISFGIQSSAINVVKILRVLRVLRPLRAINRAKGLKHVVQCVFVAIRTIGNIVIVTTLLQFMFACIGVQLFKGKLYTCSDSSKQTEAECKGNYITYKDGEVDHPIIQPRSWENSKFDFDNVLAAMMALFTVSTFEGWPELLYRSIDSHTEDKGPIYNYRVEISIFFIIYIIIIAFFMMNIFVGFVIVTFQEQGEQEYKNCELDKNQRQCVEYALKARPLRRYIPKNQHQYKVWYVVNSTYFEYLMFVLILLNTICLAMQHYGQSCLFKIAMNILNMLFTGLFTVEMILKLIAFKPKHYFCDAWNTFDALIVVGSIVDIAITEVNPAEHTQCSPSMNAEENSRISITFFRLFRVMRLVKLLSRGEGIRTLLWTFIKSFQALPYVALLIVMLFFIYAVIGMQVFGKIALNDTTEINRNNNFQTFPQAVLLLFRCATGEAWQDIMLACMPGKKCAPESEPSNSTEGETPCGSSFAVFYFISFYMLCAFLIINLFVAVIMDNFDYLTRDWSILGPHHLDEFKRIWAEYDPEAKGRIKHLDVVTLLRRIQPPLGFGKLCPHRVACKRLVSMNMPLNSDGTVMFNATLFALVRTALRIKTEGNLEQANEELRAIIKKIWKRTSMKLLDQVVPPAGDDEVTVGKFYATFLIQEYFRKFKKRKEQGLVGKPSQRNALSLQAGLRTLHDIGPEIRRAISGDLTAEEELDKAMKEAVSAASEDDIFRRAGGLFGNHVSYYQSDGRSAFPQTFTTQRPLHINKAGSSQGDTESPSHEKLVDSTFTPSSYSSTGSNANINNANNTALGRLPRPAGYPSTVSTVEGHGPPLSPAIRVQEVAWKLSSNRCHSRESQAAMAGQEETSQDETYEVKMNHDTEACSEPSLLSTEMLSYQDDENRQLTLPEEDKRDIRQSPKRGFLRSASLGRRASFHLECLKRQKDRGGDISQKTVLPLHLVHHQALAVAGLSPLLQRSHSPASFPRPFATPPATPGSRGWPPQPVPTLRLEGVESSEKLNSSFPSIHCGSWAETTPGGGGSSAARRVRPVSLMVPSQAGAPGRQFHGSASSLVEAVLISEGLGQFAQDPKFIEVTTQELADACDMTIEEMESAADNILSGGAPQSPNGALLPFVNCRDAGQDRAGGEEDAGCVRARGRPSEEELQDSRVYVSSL
T3 sequence (Q08289 1-605 isoform Q08289-2 partner): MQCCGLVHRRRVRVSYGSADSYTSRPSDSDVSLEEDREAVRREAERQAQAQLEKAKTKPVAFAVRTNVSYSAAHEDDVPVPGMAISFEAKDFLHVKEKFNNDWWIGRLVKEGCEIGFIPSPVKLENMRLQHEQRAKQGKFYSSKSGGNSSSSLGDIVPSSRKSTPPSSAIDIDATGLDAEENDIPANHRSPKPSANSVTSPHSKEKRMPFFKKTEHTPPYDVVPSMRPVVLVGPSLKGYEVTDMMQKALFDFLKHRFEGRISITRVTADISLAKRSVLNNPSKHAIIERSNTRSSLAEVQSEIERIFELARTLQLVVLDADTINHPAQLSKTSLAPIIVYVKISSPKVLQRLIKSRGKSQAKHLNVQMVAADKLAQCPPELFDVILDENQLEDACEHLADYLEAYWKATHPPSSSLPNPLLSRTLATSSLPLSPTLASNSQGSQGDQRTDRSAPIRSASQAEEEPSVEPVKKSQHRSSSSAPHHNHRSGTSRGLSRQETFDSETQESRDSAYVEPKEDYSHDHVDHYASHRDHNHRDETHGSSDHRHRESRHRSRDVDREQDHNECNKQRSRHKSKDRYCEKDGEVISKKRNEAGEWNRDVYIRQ
T3 sequence (P54289 25-1091 isoform P54289-2 partner limits assumed): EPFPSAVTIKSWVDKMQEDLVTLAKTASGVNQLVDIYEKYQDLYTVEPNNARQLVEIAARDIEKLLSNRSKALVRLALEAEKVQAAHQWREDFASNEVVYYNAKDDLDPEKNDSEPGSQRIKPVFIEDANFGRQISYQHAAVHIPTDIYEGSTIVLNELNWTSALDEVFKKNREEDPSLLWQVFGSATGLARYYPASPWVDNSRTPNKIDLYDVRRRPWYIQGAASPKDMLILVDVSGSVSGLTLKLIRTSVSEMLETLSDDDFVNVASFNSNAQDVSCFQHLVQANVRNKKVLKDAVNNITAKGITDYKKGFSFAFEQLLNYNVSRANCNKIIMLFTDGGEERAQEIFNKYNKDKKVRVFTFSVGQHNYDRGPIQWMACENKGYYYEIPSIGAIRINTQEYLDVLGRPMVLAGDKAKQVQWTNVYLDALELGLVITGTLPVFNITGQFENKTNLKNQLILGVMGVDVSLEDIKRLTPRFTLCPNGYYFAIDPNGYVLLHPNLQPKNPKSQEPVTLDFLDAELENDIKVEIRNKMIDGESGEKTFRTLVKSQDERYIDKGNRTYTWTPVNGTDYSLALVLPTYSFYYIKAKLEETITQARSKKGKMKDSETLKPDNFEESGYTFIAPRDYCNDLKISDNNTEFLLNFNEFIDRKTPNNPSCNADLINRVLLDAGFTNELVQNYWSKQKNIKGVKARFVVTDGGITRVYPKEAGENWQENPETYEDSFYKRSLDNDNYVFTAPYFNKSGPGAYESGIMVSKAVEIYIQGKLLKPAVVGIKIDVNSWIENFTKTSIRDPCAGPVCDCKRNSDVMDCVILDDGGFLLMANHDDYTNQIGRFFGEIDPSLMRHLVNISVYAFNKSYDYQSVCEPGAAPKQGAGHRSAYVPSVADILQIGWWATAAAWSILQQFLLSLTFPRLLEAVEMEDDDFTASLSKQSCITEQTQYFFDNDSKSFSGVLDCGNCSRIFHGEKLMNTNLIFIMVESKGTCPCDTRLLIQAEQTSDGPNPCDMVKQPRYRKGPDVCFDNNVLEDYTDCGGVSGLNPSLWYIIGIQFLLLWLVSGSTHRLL
T3 sequence (P54289 957-1103 partner limits assumed): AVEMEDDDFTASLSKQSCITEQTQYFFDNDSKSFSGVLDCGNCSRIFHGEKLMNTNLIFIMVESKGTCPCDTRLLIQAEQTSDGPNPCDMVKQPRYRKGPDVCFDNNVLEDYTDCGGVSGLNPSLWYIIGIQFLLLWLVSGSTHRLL

In series [1], `O=S(=O)(c1c(O)ccc2ccccc12)c1c(O)ccc2ccccc12` [Compound A005, 1,1′-sulfonylbis(naphthalen-2-ol)] returned an inhibition at 5 min, 1 μM of 25 to 50% and an inhibition at 5 min, 10 μM of 25 to 50%.

In series [2] (setting [4]), `COc1ccc2ccccc2c1Cc1c(O)ccc2ccccc12` [Compound A014, 1-((2-methoxynaphthalen-1-yl)methyl)naphthalen-2-ol] returned an inhibition at 1 μM of less than 25% and an inhibition at 10 μM of 75 to 100%. In series [1], this compound registered an inhibition at 5 min, 1 μM of less than 25% and an inhibition at 5 min, 10 μM of less than 25%. In series [3], the inhibition at 5 min, 1 μM is less than 25% and the inhibition at 5 min, 10 μM lay in the range of 50 to 75%.

On to `Oc1ccc2ccccc2c1Cc1c(OCCN2CCCC2)ccc2ccccc12` [Compound A129, 1-((2-(2-(pyrrolidin-1-yl)ethoxy)naphthalen-1-yl)methyl)naphthalen-2-ol], for which the inhibition at 1 μM in series [2] (setting [4]) lay in the range of 75 to 100%. In series [1], this compound displayed an inhibition at 5 min, 1 μM of 25 to 50% and an inhibition at 5 min, 10 μM of 75 to 100%. In addition, in series [3], the inhibition at 5 min, 1 μM was in the range of 25 to 50% and the inhibition at 5 min, 10 μM lay in the range of 75 to 100%.

For the compound `CN(C)CCOc1ccc2ccccc2c1Cc1c(O)ccc2ccccc12` [Compound A134, 1-((2-(2-(dimethylamino)ethoxy)naphthalen-1-yl)methyl)naphthalen-2-ol], in series [2] (setting [4]), the inhibition at 1 μM is 75 to 100% and the inhibition at 10 μM is 75 to 100%. In series [1], this compound returned an inhibition at 5 min, 1 μM of 25 to 50% and an inhibition at 5 min, 10 μM of 75 to 100%. Further, in series [3], the inhibition at 5 min, 1 μM was less than 25% and the inhibition at 5 min, 10 μM is 75 to 100%.

In series [2] (setting [4]), `CN(c1c(O)ccc2ccccc12)c1c(O)ccc2ccccc12` [Compound A003, 1,1′-(methylazanediyl)bis(naphthalen-2-ol)] showed an inhibition at 1 μM of 25 to 50% and an inhibition at 10 μM of 75 to 100%. Further, in series [1], the inhibition at 5 min, 1 μM lay within 25 to 50% and the inhibition at 5 min, 10 μM lay in the range of 50 to 75%. Also, in series [3], the inhibition at 5 min, 1 μM is less than 25% and the inhibition at 5 min, 10 μM is 25 to 50%.

In series [2] (setting [4]), `[O-][S+](c1c(O)ccc2ccccc12)c1c(O)ccc2ccccc12` [Compound A006, 1,1′-sulfinylbis(naphthalen-2-ol)] came in with an inhibition at 1 μM of less than 25% and an inhibition at 10 μM of less than 25%. In series [1], the inhibition at 5 min, 1 μM is less than 25% and the inhibition at 5 min, 10 μM fell in the range of 25 to 50%. In series [3], the inhibition at 5 min, 1 μM is less than 25% and the inhibition at 5 min, 10 μM is less than 25%.

With `COc1ccc2ccccc2c1C(O)c1c(OC)ccc2ccccc12` [Compound A040, bis(2-methoxynaphthalen-1-yl)methanol], in series [1], the inhibition at 5 min, 1 μM was less than 25% and the inhibition at 5 min, 10 μM was 25 to 50%.

Consider `COc1ccc2ccccc2c1Cc1c(OCC[N+]2(C)CCOCC2)ccc2ccccc12` [Compound A130-2, 4-(2-((1-((2-methoxynaphthalen-1-yl)methyl)naphthalen-2-yl)oxy)ethyl)-4-methylmorpholin-4-ium formate], for which, in series [2] (setting [4]), the inhibition at 1 μM fell in the range of 75 to 100%. The inhibition at 5 min, 1 μM in series [1] is less than 25%; in series [3], 50 to 75%. For the same compound, the values for the inhibition at 5 min, 10 μM in series [1] and in series [3] were 25 to 50% and 75 to 100%, respectively.

For `CC[N+](C)(CC)CCOc1ccc2ccccc2c1Sc1c(OC)ccc2ccccc12` [Compound A191, diethyl(2-((1-((2-methoxynaphthalen-1-yl)thio)naphthalen-2-yl)oxy)ethyl)(methyl)-14-azane, iodide salt], in series [2] (setting [4]), the inhibition at 1 μM fell in the range of 75 to 100% and the inhibition at 10 μM lay in the range of 75 to 100%. This compound also yielded an inhibition at 5 min, 1 μM in series [1] of less than 25%. Further, in series [3], the inhibition at 5 min, 1 μM lay within 25 to 50% and the inhibition at 5 min, 10 μM was 75 to 100%.

`CCN(CC)CCOc1ccc2ccccc2c1Sc1c(OC)ccc2ccccc12` [Compound A152, N,N-diethyl-2-((1-((2-methoxynaphthalen-1-yl)thio)naphthalen-2-yl)oxy)ethan-1-amine] displayed an inhibition at 1 μM in series [2] (setting [4]) of 75 to 100%. Moreover, in series [1], the inhibition at 5 min, 1 μM is less than 25% and the inhibition at 5 min, 10 μM was in the range of 50 to 75%. In series [3], the inhibition at 5 min, 1 μM was less than 25% and the inhibition at 5 min, 10 μM is 75 to 100%.

For the compound `CCN(CC)CCCOc1ccc2ccccc2c1Cc1c(O)ccc2ccccc12` [Compound A135, 1-((2-(3-(diethylamino)propoxy)naphthalen-1-yl)methyl)naphthalen-2-ol], in series [2] (setting [4]), the inhibition at 1 μM lay in the range of 75 to 100% and the inhibition at 10 μM was in the range of 75 to 100%. Also, in series [1], the inhibition at 5 min, 1 μM is less than 25% and the inhibition at 5 min, 10 μM lay within 75 to 100%. In series [3], the inhibition at 5 min, 1 μM lay in the range of 25 to 50% and the inhibition at 5 min, 10 μM lay in the range of 75 to 100%.

Take `Nc1cc(Cc2c(N)ccc3ccccc23)c2ccccc2c1` [Compound A022-2, 4-((2-aminonaphthalen-1-yl)methyl)naphthalen-2-amine]: in series [2] (setting [4]), the inhibition at 1 μM was less than 25% and the inhibition at 10 μM lay in the range of 75 to 100%. In series [3], the inhibition at 5 min, 1 μM is less than 25% and the inhibition at 5 min, 10 μM lay within 25 to 50%.

For the compound `CC(c1c(O)ccc2ccccc12)c1c(O)ccc2ccccc12` [Compound A012, 1,1′-(ethane-1,1-diyl) bis (naphthalen-2-ol)], in series [2] (setting [4]), the inhibition at 1 μM is less than 25% and the inhibition at 10 μM lay in the range of 25 to 50%. Also, in series [3], the inhibition at 5 min, 1 μM is less than 25% and the inhibition at 5 min, 10 μM fell in the range of 75 to 100%.

In series [1], `Oc1ccccc1Cc1ccccc1O` [Compound A016, 2,2′-methylenediphenol] showed an inhibition at 5 min, 1 μM of less than 25% and an inhibition at 5 min, 10 μM of less than 25%.

In series [2] (setting [4]), `COc1ccc(COCc2ccc3ccccc3c2C(O)c2c(COCc3ccc(OC)cc3)ccc3ccccc23)cc1` [Compound A080, bis(2-(((4-methoxybenzyl)oxy)methyl)naphthalen-1-yl)methanol] registered an inhibition at 1 μM of less than 25% and an inhibition at 10 μM of less than 25%. Moreover, in series [3], the inhibition at 5 min, 1 μM is less than 25% and the inhibition at 5 min, 10 μM fell in the range of 25 to 50%.

In series [2] (setting [4]), `CCOc1ccc2ccccc2c1Cc1c(OCCN2CCCC2)ccc2ccccc12` [Compound A255, 1-(2-((1-((2-ethoxynaphthalen-1-yl)methyl)naphthalen-2-yl)oxy)ethyl)pyrrolidine] showed an inhibition at 1 μM of 75 to 100% and an inhibition at 10 μM of 75 to 100%. In addition, in series [3], the inhibition at 5 min, 1 μM is less than 25% and the inhibition at 5 min, 10 μM was 75 to 100%.

In series [2] (setting [4]), `Oc1ccc2ccccc2c1Cn1c(O)nc2ccccc21` [Compound A056, 1-((2-hydroxynaphthalen-1-yl)methyl)-1H-benzo[d]imidazol-2-ol] showed an inhibition at 1 μM of less than 25% and an inhibition at 10 μM of less than 25%. Also, in series [3], the inhibition at 5 min, 1 μM was less than 25% and the inhibition at 5 min, 10 μM was in the range of 25 to 50%.

Turning to `COc1ccc2ccccc2c1Cc1c(OCC[N+]2(C)CCCC2)ccc2ccccc12` [Compound A129-2, 1-(2-((1-((2-methoxynaphthalen-1-yl)methyl)naphthalen-2-yl)oxy)ethyl)-1-methylpyrrolidin-1-ium formate], the inhibition at 1 μM in series [2] (setting [4]) is 25 to 50%. Moreover, in series [3], the inhibition at 5 min, 1 μM fell in the range of 25 to 50% and the inhibition at 5 min, 10 μM fell in the range of 75 to 100%.

As for `Nc1ccc2ccccc2c1Cc1c(N)ccc2ccccc12` [Compound A022, 1,1′-methylenebis(naphthalen-2-amine)], in series [2], the inhibition at 1 μM was less than 25% and the inhibition at 10 μM lay within 50 to 75%. Besides, in series [3], the inhibition at 5 min, 1 μM was less than 25% and the inhibition at 5 min, 10 μM lay within 50 to 75%.

As to `COc1ccc2ccccc2c1Cc1c(OC)ccc2ccccc12` [Compound A015, bis(2-methoxynaphthalen-1-yl)methane], in series [1], the inhibition at 5 min, 1 μM is less than 25% and the inhibition at 5 min, 10 μM is less than 25%.

Regarding `O=C1Cc2ccccc2N1Cc1c(O)ccc2ccccc12` [Compound A057, 1-((2-hydroxynaphthalen-1-yl)methyl)indolin-2-one], in series [2] (setting [4]), the inhibition at 1 μM was less than 25% and the inhibition at 10 μM is less than 25%. In series [3], the inhibition at 5 min, 1 μM was less than 25% and the inhibition at 5 min, 10 μM was less than 25%.

In series [2] (setting [4]), `CCOCOc1cccc2c1C(=O)CCC2` [Compound A076, 8-(ethoxymethoxy)-3,4-dihydronaphthalen-1(2H)-one] registered an inhibition at 1 μM of less than 25% and an inhibition at 10 μM of 50 to 75%. Further, in series [3], the inhibition at 5 min, 1 μM is less than 25% and the inhibition at 5 min, 10 μM is 25 to 50%.

With `COc1ccc2ccccc2c1Cc1c(OCC2CCNCC2)ccc2ccccc12` [Compound A271, 4-(((1-((2-methoxynaphthalen-1-yl)methyl)naphthalen-2-yl)oxy)methyl)piperidine], in series [2] (setting [4]), the inhibition at 1 μM is 75 to 100% and the inhibition at 10 μM was 75 to 100%. Also, the inhibition at 5 min, 1 μM in series [3] fell in the range of 50 to 75%.

In series [2] (setting [4]), `CCOCOc1ccc2ccccc2c1Cc1c(OCCN)ccc2ccccc12` [Compound A244, 2-((1-((2-(ethoxymethoxy)naphthalen-1-yl)methyl)naphthalen-2-yl)oxy)ethan-1-amine] yielded an inhibition at 1 μM of 75 to 100% and an inhibition at 10 μM of 75 to 100%. Further, in series [3], the inhibition at 5 min, 1 μM was less than 25% and the inhibition at 5 min, 10 μM is 25 to 50%.
